This is an account of results in US9271971B2, “Pyrido[3,4-B]indoles and methods of use” (Medivation Technologies, Inc., priority 2009, dated 2016).

Test [1] has as its target T1, human recombinant serotonin (5-Hydroxytryptamine) 5-HT2C receptor (Homo sapiens, UniProt P28335).
T1 construct: expressed in transfected cells; host or cells: Chinese hamster ovary (CHO-K1) cells
T1 sequence (P28335 33-458): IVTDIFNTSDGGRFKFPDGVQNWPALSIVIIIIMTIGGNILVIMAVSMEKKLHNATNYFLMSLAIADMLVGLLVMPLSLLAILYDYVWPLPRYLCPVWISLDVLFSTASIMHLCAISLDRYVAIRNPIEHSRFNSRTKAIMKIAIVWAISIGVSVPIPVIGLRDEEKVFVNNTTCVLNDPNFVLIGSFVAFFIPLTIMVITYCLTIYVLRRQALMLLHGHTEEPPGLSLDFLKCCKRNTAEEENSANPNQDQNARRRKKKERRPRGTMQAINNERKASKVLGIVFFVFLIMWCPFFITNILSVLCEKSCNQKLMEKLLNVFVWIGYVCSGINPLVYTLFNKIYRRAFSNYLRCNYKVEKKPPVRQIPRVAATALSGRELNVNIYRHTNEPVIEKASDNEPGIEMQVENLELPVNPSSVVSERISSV
The test can be described thus: Serotonin 5-HT2C radioligand binding assay. To be noted: [3H]Mesulergine specific binding; for inhibition at 1 µM: read-out: Percent Inhibition of ligand binding, Serotonin (1 μM ligand concentration) 5-HT2C. How it is done: To evaluate in radioligand binding assays the activity of compounds of the invention, human recombinant serotonin (5-Hydroxytryptamine) 5-HT2C receptor expressed in Chinese hamster ovary (CHO-K1) cells [Wolf, W. A. et al., J. Neurochem. (1997), 69:1449] in a modified Tris-HCl buffer (50 mM Tris-HCl, pH 7.4, 0.1% Ascorbic Acid, 10 μM Pargyline) was used. Compounds of the invention were incubated with 1 nM [^3H]Mesulergine for 60 min. at 25° C. Non-specific binding was estimated in the presence of 1 μM Mianserin. Receptor proteins were filtered and washed, the filters were then counted to determine [^3H]Mesulergine specifically bound. Compounds were screened at 1 μM or lower, using 1% DMSO as vehicle. Biochemical assay results are presented as the percent inhibition of specific binding in Table 4.

For test [2], the target named is human recombinant serotonin (5-Hydroxytryptamine) 5-HT7 receptor (Homo sapiens, UniProt P34969). The test can be described thus: Serotonin 5-HT7 radioligand binding assay. Conditions: [3H]LSD specific binding; for inhibition at 1 µM: read-out: Percent Inhibition of ligand binding, Serotonin (1 μM ligand concentration) 5-HT7. How it is done: To evaluate in radioligand binding assays the activity of compounds of the invention, human recombinant serotonin (5-Hydroxytryptamine) 5-HT7 receptor expressed in Chinese hamster ovary (CHO) cells [Roth, B. L. et al., J. Pharmacol. Exp. Ther. (1994), 268:1403; Shen, Y. et al., J. Biol. Chem. (1993), 268:18200] in a modified Tris-HCl buffer (50 mM Tris-HCl, pH 7.4, 10 mM MgCl2, 0.5 mM EDTA) was used. Compounds of invention were incubated with 5.5 nM [^3H] Lysergic acid diethylamide (LSD) for 2 h at 25° C. Non-specific binding was estimated in the presence of 10 μM Serotonin (5-HT). Receptor proteins were filtered and washed, the filters were then counted to determine [^3H]LSD specifically bound. Compounds were screened at 1 μM or lower, using 1% DMSO as vehicle. Biochemical assay results are presented as the percent inhibition of specific binding in Table 4.

For test [3], the target named is T2, rat adrenergic α1B receptor (Rattus norvegicus, UniProt P15823).
T2 construct: rat adrenergic α1B receptor obtained from Wistar Rat liver; from tissue; host or cells: Wistar Rat liver
T2 sequence (P15823 1-515): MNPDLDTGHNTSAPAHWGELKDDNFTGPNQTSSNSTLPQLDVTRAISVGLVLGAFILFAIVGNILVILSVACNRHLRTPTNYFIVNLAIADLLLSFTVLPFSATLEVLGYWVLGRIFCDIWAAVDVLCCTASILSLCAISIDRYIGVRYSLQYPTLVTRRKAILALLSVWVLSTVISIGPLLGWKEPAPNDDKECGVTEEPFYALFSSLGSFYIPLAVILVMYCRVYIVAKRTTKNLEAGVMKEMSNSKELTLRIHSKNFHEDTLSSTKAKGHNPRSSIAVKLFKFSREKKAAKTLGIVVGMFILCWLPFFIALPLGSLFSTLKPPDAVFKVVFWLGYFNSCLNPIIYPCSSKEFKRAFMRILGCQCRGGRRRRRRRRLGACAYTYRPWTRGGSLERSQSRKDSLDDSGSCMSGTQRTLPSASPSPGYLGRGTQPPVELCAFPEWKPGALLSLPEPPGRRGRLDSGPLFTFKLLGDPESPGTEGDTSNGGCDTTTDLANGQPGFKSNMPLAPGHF
Briefly: Adrenergic α1B radioligand binding assay. Conditions: [3H]Prozosin specific binding, read-out: Percent Inhibition of ligand binding, Adrenergic (0.1 μM ligand conc.) α1B. How it is done: To evaluate in radioligand binding assays the activity of compounds of the invention, rat adrenergic α1B receptor obtained from Wistar Rat liver [Garcia-S′ainz, J. A. et al., Biochem. Biophys. Res. Commun. (1992), 186:760; Michel, A. D. et al., Br. J. Pharmacol. (1989), 98:883] in a modified Tris-HCl buffer (50 mM Tris-HCl buffer, pH 7.4, 0.5 mM EDTA) was used. Compounds of the invention were incubated with 0.25 nM [^3H]Prozosin for 60 min. at 25° C. Non-specific binding was estimated in the presence of 10 μM phentolamine. Receptor proteins were filtered and washed, the filters were then counted to determine [^3H]Prozosin specifically bound. Compounds were screened at 1 μM or lower, using 1% DMSO as vehicle. Compounds of the invention were tested in this biochemical assay. Biochemical assay results for representative compounds were presented as the percent inhibition of specific binding in Table 3.

The structures appear in SMILES notation.

Chain of human recombinant serotonin (5-Hydroxytryptamine) 5-HT7 receptor (P34969 whole entry): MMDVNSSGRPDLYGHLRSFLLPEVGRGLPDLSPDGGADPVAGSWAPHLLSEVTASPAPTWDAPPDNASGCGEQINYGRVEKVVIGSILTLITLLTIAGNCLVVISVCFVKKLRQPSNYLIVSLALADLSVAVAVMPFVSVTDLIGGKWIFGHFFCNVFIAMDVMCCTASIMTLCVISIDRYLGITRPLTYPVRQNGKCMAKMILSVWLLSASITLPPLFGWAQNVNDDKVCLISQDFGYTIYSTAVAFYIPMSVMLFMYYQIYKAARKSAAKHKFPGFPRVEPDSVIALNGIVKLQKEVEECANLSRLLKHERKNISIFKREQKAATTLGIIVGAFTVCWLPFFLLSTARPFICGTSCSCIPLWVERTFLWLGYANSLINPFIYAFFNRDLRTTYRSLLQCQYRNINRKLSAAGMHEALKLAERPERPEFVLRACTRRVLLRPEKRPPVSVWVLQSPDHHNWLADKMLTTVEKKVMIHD

With `Cc1ccc2c(c1)c1c(n2CCc2ccc(C(F)(F)F)nc2)CN2CCC1C2` (stereo not drawn) [Compound 1], the inhibition at 1 µM in test [1] is 10%.

On to `Cc1ccc2c(c1)c1c(n2CC(C)(O)c2ccc(F)cc2)CN2CCC1C2` (stereo not drawn) [Compound 2], for which the inhibition at 1 µM in test [1] was found to be 57%.

On to `C=C(Cn1c2c(c3cc(C)ccc31)C1CCN(C2)C1)c1ccc(F)cc1` (stereo not drawn) [Compound 3], for which the inhibition at 1 µM in test [1] came to 97%.

For `Cc1ccc2c(c1)c1c(n2CC(O)c2ccccc2)CN2CCC1C2` (stereo not drawn) [Compound 4], the inhibition at 1 µM in test [1] is 31%. On the same count and under the same terms, the figure for `Cc1ccc(C(O)Cn2c3c(c4cc(C)ccc42)C2CCN(C3)C2)cc1` (stereo not drawn) [Compound 5] is 53%; for `COc1ccc(C(O)Cn2c3c(c4cc(C)ccc42)C2CCN(C3)C2)cc1F` (stereo not drawn) [Compound 6] it is 43%; for `Cc1ccc2c(c1)c1c(n2CC(=O)N2CCCCC2)CN2CCC1C2` (stereo not drawn) [Compound 7] it is 2%. Same read-out and setting: the figure for `COc1ccc(C(O)Cn2c3c(c4cc(C)ccc42)C2CCN(C3)C2)cc1OC` (stereo not drawn) [Compound 8] is 12%; for `Cc1ccc2c(c1)c1c(n2CCc2cncc(F)c2)CN2CCC1C2` (stereo not drawn) [Compound 9] it is 4%; for `Cc1ccc(/C=C/n2c3c(c4cc(C)ccc42)C2CCN(C3)C2)cc1` (stereo not drawn) [Compound 10] it is 9%. Regarding `Cc1ccc2c(c1)c1c(n2CCc2ccccn2)CN2CCC1C2` (stereo not drawn) [Compound 11], the inhibition at 1 µM in test [1] is 17%. On the same count and under the same terms, the figure for `Cc1ccc2c(c1)c1c(n2CCc2ccc(C)nc2)CN2CCC1C2` (stereo not drawn) [Compound 12] is 5%; for `Cc1ccc2c(c1)c1c(n2CC(C)(O)c2ccc(Cl)c(Cl)c2)CN2CCC1C2` (stereo not drawn) [Compound 13] it is 83%; for `Cc1ccc2c(c1)c1c(n2CC(C)(O)c2ccc(Cl)cc2Cl)CN2CCC1C2` (stereo not drawn) [Compound 14] it is 87%. Still for that read-out and setting: the figure for `Cc1ccc2c(c1)c1c(n2CC(C)(O)c2ccc(F)c(F)c2)CN2CCC1C2` (stereo not drawn) [Compound 15] is 87%; for `Cc1ccc2c(c1)c1c(n2CC(C)(O)c2ccc(Cl)cc2)CN2CCC1C2` (stereo not drawn) [Compound 16] it is 92%; for `Cc1ccc2c(c1)c1c(n2CC(C)(O)c2ccc(F)cc2F)CN2CCC1C2` (stereo not drawn) [Compound 17] it is 92%. Same read-out and setting: the figure for `Cc1ccc2c(c1)c1c(n2CC(C)(O)c2ccc(F)c(Cl)c2)CN2CCC1C2` (stereo not drawn) [Compound 18] is 87%; for `Cc1ccc2c(c1)c1c(n2CCc2nc(-c3ccccc3)cs2)CN2CCC1C2` (stereo not drawn) [Compound 19] it is 23%. Turning to `Cc1ccc(C(C)(O)Cn2c3c(c4cc(C)ccc42)C2CCN(C3)C2)cc1` (stereo not drawn) [Compound 20], in test [1], the inhibition at 1 µM was 94%. Same read-out and setting: the figure for `Cc1ccc2c(c1)c1c(n2CC(=O)c2ccccc2)CN2CCC1C2` (stereo not drawn) [Compound 21] is -4%; for `C/C(=C\n1c2c(c3cc(C)ccc31)C1CCN(C2)C1)c1ccc(F)cc1` (stereo not drawn) [Compound 22] it is 96%. For the compound `Cc1ccc2c(c1)c1c(n2CC(=O)NC2CCCCC2)CN2CCC1C2` (stereo not drawn) [Compound 23], the inhibition at 1 µM in test [1] turned out to be 11%.

Regarding `Cc1ccc2c(c1)c1c(n2CC(=O)N2CCNCC2)CN2CCC1C2` (stereo not drawn) [Compound 24], the inhibition at 1 µM in test [1] was found to be 5%. Same read-out and setting: to `Cc1ccc2c(c1)c1c(n2CC(=O)N2CCC(C)CC2)CN2CCC1C2` (stereo not drawn) [Compound 25] belongs 15%; to `Cc1ccc2c(c1)c1c(n2CC(=O)N2CCOCC2)CN2CCC1C2` (stereo not drawn) [Compound 26], 20%.

In the case of `Cc1ccc2c(c1)c1c(n2CC(=O)N(C)C)CN2CCC1C2` (stereo not drawn) [Compound 27], the inhibition at 1 µM in test [1] was -1%. Regarding `Cc1ccc2c(c1)c1c(n2CC(=O)c2ccc(F)cc2)CN2CCC1C2` (stereo not drawn) [Compound 28], the figures for the inhibition at 1 µM in test [1] and in test [2] were 83% and 82%, respectively. Turning to `Cc1ccc2c(c1)c1c(n2CC(=O)c2ccc(Cl)cc2)CN2CCC1C2` (stereo not drawn) [Compound 29], the inhibition at 1 µM was determined as 74% in test [1] and 81% in test [2]. On the same counts, the results for `Cc1ccc2c(c1)c1c(n2CCc2ccncc2)CN2CCC1C2` (stereo not drawn) [Compound 30] are 85% and 95%. For `Cc1ccc2c(c1)c1c(n2CC(O)c2ccc(F)cc2)CN2CCC1C2` (stereo not drawn) [Compound 31], in that order: 46% and 73%. On to `C/C(=C\n1c2c(c3cc(C)ccc31)C1CCN(C2)C1)c1ccc(Cl)cc1` (stereo not drawn) [Compound 32], for which the inhibition at 0.1 µM in test [3] was found to be 67%. The figures for the inhibition at 1 µM in test [1] and in test [2] were 92% and 96%, respectively. For `C/C(=C\n1c2c(c3cc(C)ccc31)C1CCN(C2)C1)c1ccc(Cl)cc1Cl` (stereo not drawn) [Compound 33], in that order: 28%, 95% and 96%. On to `C/C(=C\n1c2c(c3cc(C)ccc31)C1CCN(C2)C1)c1ccc(Cl)cc1Cl` (stereo not drawn) [Compound 34], for which the “Percent Inhibition of ligand binding, Serotonin (1 μM ligand concentration) 5-HT2C” value in test [1] is given as 99%. The “Percent Inhibition of ligand binding, Serotonin (1 μM ligand concentration) 5-HT7” value in test [2] was 86%.

Consider `Cc1ccc2c(c1)c1c(n2C#Cc2ccc(Cl)cc2)CN2CCC1C2` (stereo not drawn) [Compound 35], for which the results for the inhibition at 1 µM in test [1] and in test [2] were 94% and 35%, respectively. For `C/C(=C/n1c2c(c3cc(C)ccc31)C1CCN(C2)C1)c1ccccc1F` (stereo not drawn) [Compound 37], in that order: 94% and 93%. For `C/C(=C\n1c2c(c3cc(C)ccc31)C1CCN(C2)C1)c1ccc(F)c(F)c1` (stereo not drawn) [Compound 39], the inhibition at 1 µM was 94% in test [1] and 96% in test [2]. On the same counts, the results for `C/C(=C\n1c2c(c3cc(C)ccc31)C1CCN(C2)C1)c1ccc(Cl)c(Cl)c1` (stereo not drawn) [Compound 40] are 89% and 95%. Turning to `COc1ccc(/C(C)=C/n2c3c(c4cc(C)ccc42)C2CCN(C3)C2)cc1F` (stereo not drawn) [Compound 41], the inhibition at 1 µM in test [1] came to 97%; in test [2] it was 90%. For `C/C(=C\n1c2c(c3cc(C)ccc31)C1CCN(C2)C1)c1cccnc1` (stereo not drawn) [Compound 42], in that order: 64% and 92%. In the case of `Cc1ccc2c(c1)c1c(n2C(=O)Cc2ccc(F)cc2)CN2CCC1C2` (stereo not drawn) [Compound 43], the inhibition at 1 µM in test [1] is 66%; in test [2], 41%.
